# According to US10336720B2, “Cyclic carbonate monomer containing double iodine, biodegradable polymer prepared thereby and use” (SOOCHOW UNIVERSITY, priority 2015, dated 2019):
# Counter-ions that a name gives are not always drawn.
# Tests used:
# [1] = Blood circulation of drug-loaded vesicles; conditions: nude Balb/C, mouse, whole blood, intravenous, 10 mg/kg
# Method: The blood samples (approximately 10 μL) were collected at time points of 0, 0.25, 0.5, 1, 2, 4, 8, 12 and 24 h. The exact weight of the blood was determined through weighing by difference method, then 100 μL Triton (concentration: 1%) and 500 μL DMF (which contained 20 mM DTT, 1 M HCl) were added. The sample was subjected to extraction, followed by centrifugation (20,000 rpm, 20 min).
# [2] = test system: B16 tumor; assay: Antitumor effect and weight change in mice bearing B16 tumor; assay type: in vivo, Nude Balb/C mice
# From the text: After 2 weeks, when the size of the tumors was 30-50 mm^3, the experiment began. […] From Day 0 to 18, the body weight of the mice in each group was weighed every two days. The size of the tumor was precisely measured with Vernier scale, where the method for calculating the volume of tumors was: V=(L×W×H)/2, (where L was the length of the tumor, W was the width of the tumor, H was the thickness of the tumor). The survival of the mice was observed continuously till the 45th day.
# [3] = Maximum tolerated dose (MTD); conditions: nude Balb/C, mouse, in vivo
# From the text: Nude Balb/C mice with body weight of about 18-20 g, aged 4-6 weeks were used. […] The standard for MTD was non accidental death in mice or weight less than 15% in mice.
# [4] = test system: tumor site; assay: CT imaging of nano-vesicles in mice (Example 20); assay type: in vivo; conditions: tail vein, circulation after 40 minutes
# Method: By the changing CT value in FIG. 10 can be seen, after a 4 hour cycle, CT change of cRGD20/CLPs was the highest, followed by CLPs, and lowest in the control group, after 7 hours of circulation, CT value of cRGD20/CLPs is 2 times and 10 times than the other two groups.
contrast signal in the bladder [4],Structure (SMILES),half-life [1],"tumor growth ([2]; DOX.HCl 10 mg/kg at 0, 4, 8, 12 day, 19-day treatment)","body weight decrease ([2]; in 7 days, DOX.HCl 10 mg/kg)",MTD at 10 days [3]
–,"COc1cccc2c1C(=O)c1c(O)c3c(c(O)c1C2=O)C[C@@](O)(C(=O)CO)C[C@@H]3O[C@H]1C[C@H](N)[C@H](O)[C@H](C)O1 [DOX.HCl, doxorubicin hydrochloride]",7.8 min,may also inhibit tumor expansion,20%,< 10 mg/kg
contrast strong signal,CC(=O)N(CC(O)CO)c1c(I)c(C(=O)NCC(O)CO)c(I)c(C(=O)NCC(O)CO)c1I (centres unmarked) [iohexol],–,–,–,–
